Drawing on PMC7238114, “L-Type Amino Acid Transporter 1-Utilizing Prodrugs of Ketoprofen Can Efficiently Reduce Brain Prostaglandin Levels” (Pharmaceutics, 2020), this text covers IC50 for three compounds.

The assay concerns cyclooxygenase (COX; isoform not resolved, COX1/COX2). Nature of the assay: fluorometric COX peroxidase activity assay (Amplex Red) in BV2 cell lysate. The format is biochemical.

The structures appear in SMILES notation.

With `CC(C(=O)NCCCC[C@H](N)C(=O)O)c1cccc(C(=O)c2ccccc2)c1` (stereo partly drawn) [PD2, pro-drug 2], the IC50 (usually the point on the concentration scale where inhibition reaches its midpoint) stood at 1050 ± 1210 nM.

With `CC(C(=O)O)c1cccc(C(=O)c2ccccc2)c1` (stereo not drawn) [KPF, ketoprofen], half-maximal inhibition (IC50) was put at 850 ± 1180 nM.

`CC(C(=O)NCC[C@H](N)C(=O)O)c1cccc(C(=O)c2ccccc2)c1` (stereo partly drawn) [PD3, pro-drug 3] came in with an IC50 of 2260 ± 1330 nM.
